Source: ChEMBL document CHEMBL3091451, “Function-regulating pharmacophores in a sulfonamide class of glucocorticoid receptor agonists” (Bioorg Med Chem Lett, 2013)

How the values were obtained:
Progesterone receptor = molecular target: T1, Progesterone receptor (Homo sapiens, UniProt P06401); test: Displacement of TAMRA-labeled mifepristone from progesterone receptor (unknown origin) by fluorescence polarization competitive binding assay
T1 sequence (P06401 whole entry): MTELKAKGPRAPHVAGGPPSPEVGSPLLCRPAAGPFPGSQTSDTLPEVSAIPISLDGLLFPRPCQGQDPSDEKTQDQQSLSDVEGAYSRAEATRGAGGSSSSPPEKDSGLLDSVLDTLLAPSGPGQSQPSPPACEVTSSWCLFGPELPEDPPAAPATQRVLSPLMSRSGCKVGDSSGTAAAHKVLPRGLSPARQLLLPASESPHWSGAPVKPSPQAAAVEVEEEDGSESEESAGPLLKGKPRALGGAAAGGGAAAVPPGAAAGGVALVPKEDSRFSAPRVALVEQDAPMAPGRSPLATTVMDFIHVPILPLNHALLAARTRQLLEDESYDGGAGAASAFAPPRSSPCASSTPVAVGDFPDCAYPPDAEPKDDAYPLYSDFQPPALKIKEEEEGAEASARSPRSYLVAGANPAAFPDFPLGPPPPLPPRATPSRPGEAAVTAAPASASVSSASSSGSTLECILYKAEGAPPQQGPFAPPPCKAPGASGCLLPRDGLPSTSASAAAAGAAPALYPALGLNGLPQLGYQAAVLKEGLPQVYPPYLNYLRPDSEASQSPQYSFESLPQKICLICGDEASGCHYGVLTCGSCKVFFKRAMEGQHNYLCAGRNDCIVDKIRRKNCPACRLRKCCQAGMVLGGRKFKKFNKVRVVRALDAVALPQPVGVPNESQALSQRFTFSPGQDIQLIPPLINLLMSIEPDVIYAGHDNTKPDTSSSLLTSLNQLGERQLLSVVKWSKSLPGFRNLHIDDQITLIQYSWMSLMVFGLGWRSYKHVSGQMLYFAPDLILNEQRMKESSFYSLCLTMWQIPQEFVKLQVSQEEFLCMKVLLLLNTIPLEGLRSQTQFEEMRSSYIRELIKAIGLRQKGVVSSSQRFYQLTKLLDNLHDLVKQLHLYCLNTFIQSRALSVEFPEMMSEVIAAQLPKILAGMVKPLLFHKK

[1] = molecular target: T2, Mineralocorticoid receptor (Homo sapiens, UniProt P08235); test: Binding affinity to mineralocorticoid receptor (unknown origin) by fluorescence polarization competitive binding assay
T2 sequence (P08235 whole entry): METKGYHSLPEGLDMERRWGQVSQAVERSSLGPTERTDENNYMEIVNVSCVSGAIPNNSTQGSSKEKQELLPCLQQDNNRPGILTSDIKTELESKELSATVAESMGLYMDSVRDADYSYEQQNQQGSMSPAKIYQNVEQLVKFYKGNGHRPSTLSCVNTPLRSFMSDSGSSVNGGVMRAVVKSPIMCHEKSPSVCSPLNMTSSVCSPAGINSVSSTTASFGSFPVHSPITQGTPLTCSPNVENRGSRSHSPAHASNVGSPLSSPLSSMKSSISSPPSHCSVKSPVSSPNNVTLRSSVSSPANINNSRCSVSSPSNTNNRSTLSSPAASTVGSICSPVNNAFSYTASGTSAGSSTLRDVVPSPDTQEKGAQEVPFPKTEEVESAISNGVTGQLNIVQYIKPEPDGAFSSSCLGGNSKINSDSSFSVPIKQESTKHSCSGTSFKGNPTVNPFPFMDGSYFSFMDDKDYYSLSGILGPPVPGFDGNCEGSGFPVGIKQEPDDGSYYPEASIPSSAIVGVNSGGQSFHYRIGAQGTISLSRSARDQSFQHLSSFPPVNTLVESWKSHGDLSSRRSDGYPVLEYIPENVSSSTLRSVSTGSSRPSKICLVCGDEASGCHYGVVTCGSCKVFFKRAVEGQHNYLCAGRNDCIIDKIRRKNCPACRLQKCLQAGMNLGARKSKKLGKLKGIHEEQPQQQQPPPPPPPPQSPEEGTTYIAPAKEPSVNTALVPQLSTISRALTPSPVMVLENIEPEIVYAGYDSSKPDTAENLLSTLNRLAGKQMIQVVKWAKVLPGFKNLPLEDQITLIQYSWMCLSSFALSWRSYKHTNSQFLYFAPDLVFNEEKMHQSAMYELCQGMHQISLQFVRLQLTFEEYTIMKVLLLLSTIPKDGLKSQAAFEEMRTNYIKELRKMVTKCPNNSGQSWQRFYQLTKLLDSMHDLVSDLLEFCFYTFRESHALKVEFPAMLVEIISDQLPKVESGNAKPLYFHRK

Homo sapiens = species on record: Homo sapiens; test: Selectivity ratio of IC50 for mineralocorticoid receptor (unknown origin) to IC50 for glucocorticoid receptor (unknown origin)
Glucocorticoid receptor [2] = molecular target: T3, Glucocorticoid receptor (Homo sapiens, UniProt P04150); test: Agonist activity at glucocorticoid receptor in HFF assessed as inhibition of IL-1-induced IL-6 production after 24 hrs
T3 sequence (P04150 whole entry): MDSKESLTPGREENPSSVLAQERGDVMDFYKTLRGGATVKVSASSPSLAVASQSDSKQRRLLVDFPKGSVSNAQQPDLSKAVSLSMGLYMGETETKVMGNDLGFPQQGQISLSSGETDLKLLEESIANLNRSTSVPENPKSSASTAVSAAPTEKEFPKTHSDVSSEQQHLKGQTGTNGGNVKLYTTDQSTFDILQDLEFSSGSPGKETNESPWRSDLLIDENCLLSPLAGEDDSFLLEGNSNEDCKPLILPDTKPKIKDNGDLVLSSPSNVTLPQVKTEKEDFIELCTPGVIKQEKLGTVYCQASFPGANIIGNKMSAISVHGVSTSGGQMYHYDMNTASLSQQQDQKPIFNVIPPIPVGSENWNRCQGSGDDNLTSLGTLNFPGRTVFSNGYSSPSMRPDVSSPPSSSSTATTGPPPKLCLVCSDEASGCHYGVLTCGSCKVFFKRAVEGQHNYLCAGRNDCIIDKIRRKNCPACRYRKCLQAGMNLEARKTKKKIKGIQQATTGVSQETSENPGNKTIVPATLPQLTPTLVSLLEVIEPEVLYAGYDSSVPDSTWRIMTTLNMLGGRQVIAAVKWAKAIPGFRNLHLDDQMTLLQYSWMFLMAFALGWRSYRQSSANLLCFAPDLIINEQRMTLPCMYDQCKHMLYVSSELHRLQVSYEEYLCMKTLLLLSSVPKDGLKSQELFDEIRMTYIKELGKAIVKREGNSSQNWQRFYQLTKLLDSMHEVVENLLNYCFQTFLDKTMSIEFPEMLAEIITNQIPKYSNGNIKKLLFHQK

Glucocorticoid receptor [3] = molecular target: T3, Glucocorticoid receptor; test: Displacement of TAMRA-labeled dexamethasone from glucocorticoid receptor (unknown origin) by fluorescence polarization competitive binding assay
[4] = Half life in human liver microsomes; assay type: ADME
Cytochrome P450 3A4 = Cytochrome P450 3A4 (Homo sapiens, UniProt P08684); test: Inhibition of CYP3A4 (unknown origin) using 7-benzyloxy-4-trifluoromethylcoumarin as substrate; assay type: ADME
Sequence of Cytochrome P450 3A4 (P08684 whole entry): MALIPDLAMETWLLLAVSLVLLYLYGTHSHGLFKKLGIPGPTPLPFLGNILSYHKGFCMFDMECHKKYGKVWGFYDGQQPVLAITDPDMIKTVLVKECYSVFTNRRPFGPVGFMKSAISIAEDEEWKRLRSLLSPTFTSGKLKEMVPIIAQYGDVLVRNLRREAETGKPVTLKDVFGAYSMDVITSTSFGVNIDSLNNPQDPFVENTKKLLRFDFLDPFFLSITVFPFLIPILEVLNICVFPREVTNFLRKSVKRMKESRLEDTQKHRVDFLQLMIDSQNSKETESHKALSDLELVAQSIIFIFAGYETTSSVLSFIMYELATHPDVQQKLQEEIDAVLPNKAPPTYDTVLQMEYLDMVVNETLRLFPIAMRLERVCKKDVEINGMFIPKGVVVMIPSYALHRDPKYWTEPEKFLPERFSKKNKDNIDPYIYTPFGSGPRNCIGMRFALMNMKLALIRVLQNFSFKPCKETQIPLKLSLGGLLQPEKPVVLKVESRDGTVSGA

Mus musculus [5] = species on record: Mus musculus; test: Antiinflammatory activity in mouse assessed as inhibition of LPS-stimulated TNFalpha production; assay type: functional
Mus musculus [6] = species on record: Mus musculus; test: Antiarthritic activity in collagen antibody-induced arthritis mouse model; assay type: functional

Compound	IC50 (Progesterone receptor) [µM]	IC50 [1] [µM]	Ratio IC50 (Homo sapiens)	IC50 (Glucocorticoid receptor [2]) [µM]	IC50 (Glucocorticoid receptor [3]) [µM]	half-life [4] [min]	IC50 (Cytochrome P450 3A4) [µM]	ED50 (Mus musculus [5]) [mg/kg]	ED50 (Mus musculus [6]) [mg/kg]
Cc1cc(C)c(S(=O)(=O)NC(Cc2c[nH]c3cc(C)ccc23)C(F)(F)F)c(C)c1 (stereo not drawn)	> 2	0.14	1	> 2	0.037				
Cc1cc(C)c(S(=O)(=O)NC(Cc2c[nH]c3ccc(C)cc23)C(F)(F)F)c(C)c1 (stereo not drawn)	6	0.09	1	0.21	0.01				
CC(Cc1c[nH]c2ccccc12)NS(=O)(=O)c1c(N)cc(Cl)cc1Cl (stereo not drawn)	> 2	0.51	102	0.12	0.005				
Cc1cc(C)c(S(=O)(=O)NC(COc2ccccc2)C(F)(F)F)c(C)c1 (stereo not drawn)	6.4	0.34		> 10	0.21				
CC[C@@H](Cn1ccc2ccccc21)NS(=O)(=O)c1c(N)cc(Cl)cc1Cl	> 10	0.51		> 2	0.002	3	0.57		
Cc1cc(C)c(S(=O)(=O)NC(Cc2c[nH]c3cccc(C)c23)C(F)(F)F)c(C)c1 (stereo not drawn)	> 2	0.08	1	> 2	0.018				
Nc1cc(Cl)cc(Cl)c1S(=O)(=O)NC(Cc1c[nH]c2ccccc12)C(F)(F)F (stereo not drawn)	> 2	0.27		0.056	0.01				
Cc1cc(C)c(S(=O)(=O)NC(Cc2c[nH]c3cccc(C#N)c23)C(F)(F)F)c(C)c1 (stereo not drawn)	> 10	0.17			> 10				
Cc1cc(C)c(S(=O)(=O)NC(Cn2ccc3ncccc32)C(F)(F)F)c(C)c1 (stereo not drawn)	> 10	0.22		> 2	0.34				
Cc1cc(C)c(S(=O)(=O)NC(Cc2c[nH]c3ccc(C#N)cc23)C(F)(F)F)c(C)c1 (stereo not drawn)	> 10	0.21	1	> 10	0.32				
CC(Cc1c[nH]c2ccccc12)NS(=O)(=O)c1c(Cl)cc(Cl)cc1Cl (stereo not drawn)				> 2					

Second part, led by results:

IC50 (Progesterone receptor) [µM]	IC50 [1] [µM]	Ratio IC50 (Homo sapiens)	IC50 (Glucocorticoid receptor [2]) [µM]	IC50 (Glucocorticoid receptor [3]) [µM]	half-life [4] [min]	IC50 (Cytochrome P450 3A4) [µM]	Compound	ED50 (Mus musculus [5]) [mg/kg]	ED50 (Mus musculus [6]) [mg/kg]
0.54	0.07	1	0.045	0.01			Cc1cc(C)c(S(=O)(=O)NC(Cc2c[nH]c3c(C#N)cccc23)C(F)(F)F)c(C)c1 (stereo not drawn)		
3.6	0.08		> 2	0.015			Cc1cc(C)c(S(=O)(=O)NC(Cc2c[nH]c3ccccc23)C(F)(F)F)c(C)c1 (stereo not drawn)		
1.4	0.29		> 2	0.04			Cc1cc(C)c(S(=O)(=O)N[C@@H](C)Cc2c[nH]c3ccccc23)c(C)c1		
3.5	0.08		> 2	0.035			O=S(=O)(NC(Cc1c[nH]c2ccccc12)C(F)(F)F)c1c(Cl)cc(Cl)cc1Cl (stereo not drawn)		
5.9	0.09	1	> 10	0.02			Cc1cc(C)c(S(=O)(=O)NC(Cc2c[nH]c3c(C)cccc23)C(F)(F)F)c(C)c1 (stereo not drawn)		
5	0.26		0.01	0.002	2	0.94	CC[C@@H](Cn1cc(C)c2ccccc21)NS(=O)(=O)c1c(N)cc(Cl)cc1Cl		
0.53	0.065		> 2	0.015			Cc1cc(C)c(S(=O)(=O)NC(Cn2cc(C#N)c3ccccc32)C(F)(F)F)c(C)c1 (stereo not drawn)		
2	0.28	1	> 10	0.28			Cc1cc(C)c(S(=O)(=O)NC(Cc2c[nH]c3cc(C#N)ccc23)C(F)(F)F)c(C)c1 (stereo not drawn)		
2.4	0.12		> 10	0.025			Cc1cc(C)c(S(=O)(=O)NC(Cn2ccc3ccccc32)C(F)(F)F)c(C)c1 (stereo not drawn)		
2	0.28		> 10	0.02			Cc1cc(C)c(S(=O)(=O)NC(CSc2ccccc2)C(F)(F)F)c(C)c1 (stereo not drawn)		
0.75	0.11	22	0.015	0.005			Cc1cc(C)c(S(=O)(=O)NC(Cc2c[nH]c3c(C#N)cc(C)cc23)C(F)(F)F)c(C)c1 (stereo not drawn)		
0.7	0.1		> 10	0.06			Cc1cc(C)c(S(=O)(=O)NC(Cn2ccc3c(C#N)cccc32)C(F)(F)F)c(C)c1 (stereo not drawn)		
1.5	0.33	330	0.007	0.001	3	5.8	CC[C@@H](Cn1cc(C#N)c2ccccc21)NS(=O)(=O)c1c(N)cc(Cl)cc1Cl	10	100
5.3	0.47		> 2	0.015			CC(C)(Cc1c[nH]c2ccccc12)NS(=O)(=O)c1c(N)cc(Cl)cc1Cl		
3.2	0.26		> 10	0.095			Cc1cc(C)c(S(=O)(=O)NC(CNc2ccccc2)C(F)(F)F)c(C)c1 (stereo not drawn)		
